Data as given in patent publication US11939377B2, “Affinity matured CD22-specific monoclonal antibody and uses thereof” (The U.S.A., as represented by the Secretary, Department of …, priority 2018, dated 2024).

Key:
CD22 = assay: Immunofluorescent staining of CD22 in permeabilized leukemia cells; assay type: cell-based, human; settings: 24 hours after exposure, 1 nM
Protocol: FIGS. 10A-10E: (FIG. 10A) Three cell lines (Toldeo, Kopn8 and Nalm6) were co-incubated with Bryostatin 1 at varying concentrations for 24 hours. At 24 hours, cells were collected for protein kinase C (PKC)-βII isoform analysis by western blot. (FIG. 10B) KOPN8 or SEM cell lines were exposed to Bryostatin 1 for 16, 24, 48 or 72 hours. RNA was extracted from cells and analyzed using RNAseq. (FIG. 10C) Immunofluorescent staining of CD22 was conducted through permeabilization followed by staining of CD22. (FIG. 10D) Four cell lines were co-incubated with various combinations of Enzastaurin (10 μM), Staurosporine (100 μM), or Bryostatin 1 (1 nM) for 24 hours. CD22 expression was assessed using flow cytometry. MFI fold change=CD22 MFI^Bryostatin1/CD22 MFI^DMSO. (FIG. 10E) Cell lines were co-incubated with 1 nM Bryostatin 1 for 24 hours and measured for CD22 expression using CD22-PE antibody. MFI fold change=CD22 MFI^Bryostatin 1/CD22 MFI^DMSO.
μ-dish 35 mm, high glass bottom dishes (Ibidi Inc, Madison, WI) were coated with poly-D-lysine for 2 hours and then seeded with 5×10^5 leukemia cells, which had been pre-treated with either 1 nM Bryostatin 1 or DMSO control for 24 hours. Approximately 12 hours after seeding, cells were fixed in 4% paraformaldehyde and then permeabilized with 0.2% Triton X-100 detergent. […]

[1] = test system: CD22^lo or Nalm6 leukemia; assay: CAR T cell persistence and phenotype by flow cytometry in leukemia-bearing mice; assay type: in vivo, NSG mice
Protocol: FIGS. 9A-9F: (FIGS. 9A-9B) A total of 1×10^5 tumor cells were co-cultured with 1×10^5 mock, CD22, or […] CAR and assessed for IFNγ and IL2 cytokines by ELISA from cell culture supernatants (statistics were calculated using paired t test (*, P<0.0332); FIG. 9A) or Annexin V staining was assessed over time using IncuCyte ZOOM (FIG. 9B). […] (FIG. 9C) NSG mice were injected with 1×10^6 GPF-positive CD22^neg, CD22^lo, or Nalm6 tumor cells on day 0. On day 3, 5×10^6 CD22 or CD22^V1 CAR were injected for treatment. Mice were imaged using IVIS technology and luciferin-D intraperitoneal injections. Luminescence quantification is shown on the right. […] (FIG. 9D) CD22 or CD22^V1 CART were co-incubated with tumor cells. On days 1 and 8, CAR was harvested, stained for flow cytometry, and analyzed on Fortessa flow machine. Statistics were calculated using unpaired t test (*, P<0.0332). (FIGS. 9E-9F) Mice were injected with CD22^lo or Nalm6 leukemia on day 0. […] Bone marrow cells were stained for flow cytometry and analyzed on Fortessa flow machine. Statistics were calculated using unpaired t test (****, P<0.0001; *, P<0.0332).
FIGS. 13A-13F: (FIG. 13A) BIAcore analysis was used to evaluate association and dissociation curves of various scFvs. Note: The calculated dissociation rate constant kd (1.1×10^−6 l/s) is lower than the kd which can be measured by the BIAcore X-100 used here (1.0×10^−5 l/s). […] (FIG. 13B) CD22^V1 or CD22 CART were co-cultured with CD22^neg or CD22^lo leukemia and evaluated at 24 hours for PD1 expression through flow cytometry on a Fortessa flow machine. […] Bone marrow cells were stained for flow cytometry and analyzed on Fortessa flow machine. Statistics were calculated using unpaired t-test (** p<0.0021).
CD22-CAR functionality and anti-leukemic efficacy were evaluated in vivo in Nalm6 xenograft or PDX models with NOD.Cg-Prkdcscid Il2rgtm1Wjl/SzJ (NSG) mice (The Jackson Laboratory and bred in-house) ages 6-10 weeks. […] On day 3, mice received CD22-CAR-transduced T cells or mock-transduced T cells intravenously at the indicated quantity. […]

Compound: CCC/C=C/C=C/C(=O)O[C@H]1/C(=C/C(=O)OC)C[C@H]2C[C@H]([C@@H](C)O)OC(=O)C[C@H](O)C[C@@H]3C[C@H](OC(C)=O)C(C)(C)[C@](O)(C[C@@H]4C/C(=C/C(=O)OC)C[C@H](/C=C/C(C)(C)[C@]1(O)O2)O4)O3 [Bryostatin 1]
- vacuolated CD22 compared to DMSO controls (CD22): less vacuolated CD22
- CD22 CART in bone marrow ([1]; 30 days, drug 40 μg/kg once weekly for 2 weeks after CART): slightly increased
- central memory and effector memory cells within CD8+ CART population, spleen ([1]; Nalm6 pretreated with drug, seven days after CD22 CAR injection): significant cumulative enrichment
- CART activation/exhaustion markers (PD1, TIM3, LAG3) ([1]; with Bryostatin 1 exposure): stable PD1 expression, without increase in TIM3 or LAGS
